For test [1], the target named is T1, human dopamine D2L receptors (long isoform) (Homo sapiens, UniProt P14416).
T1 construct: expressed in transfected cells; host or cells: HEK-293
Kind of test: Dopamine D2L receptor binding, [125I] iodospiperone displacement. To be noted: selectivity ratio of receptor binding constants, D2L versus D3. As to the method: (§1) The substance to be tested was either dissolved in methanol/Chremophor® (BASF-AG) or in dimethyl sulfoxide and then diluted with water to the desired concentration.
(§2) Each assay mixture was run in triplicate.
The incubation buffer contained 50 mM tris, 120 mM NaCl, 5 mM KCl, 2 mM CaCl2, 2 mM MgCl2 and 0.1% bovine serum albumin. The buffer was adjusted to pH 7.4 with HCl.
(§3) After having been incubated at 25° C. for 60 minutes, the assay mixtures were filtered through a Whatman GF/B glass fiber filter under vacuum using a cell collecting device. The filters were transferred to scintillation viols using a filter transfer system. After 4 ml of Ultima Gold® (Packard) have been added, the samples were shaken for one hour and the radioactivity was then counted in a Beta-Counter (Packard, Tricarb 2000 or 2200CA). The cpm values were converted into dpm using a standard quench series and the program belonging to the instrument.
(§4) The inhibition curves were analyzed by means of iterative nonlinear regression analysis using the Statistical Analysis System (SAS) which is similar to the “LIGAND” program described by Munson and Rodbard.

Test [2] addresses T2, human dopamine D3 receptors (Homo sapiens, UniProt P35462).
T2 construct: expressed in transfected cells; host or cells: HEK-293
Kind of test: Dopamine D3 receptor binding, [125I]-iodosulpride displacement. To be noted: membranes of HEK-293 cells expressing human D3 receptor; 0.1 nM [125I]-iodosulpride. As to the method: as §1, §2
The incubation buffer contained 50 mM tris, 120 mM NaCl, 5 mM KCl, 2 mM CaCl2, 2 mM MgCl2 and 0.1% bovine serum albumin, 10 μM quinolone and 0.1% ascorbic acid (prepared fresh daily). The buffer was adjusted to pH 7.4 with HCl.
as §3, §4

Each structure is given as a SMILES string. Counter-ions that a name gives are not always drawn. A value given as a limit tells only on which side of the number the result lay.

T2 sequence (P35462 whole entry): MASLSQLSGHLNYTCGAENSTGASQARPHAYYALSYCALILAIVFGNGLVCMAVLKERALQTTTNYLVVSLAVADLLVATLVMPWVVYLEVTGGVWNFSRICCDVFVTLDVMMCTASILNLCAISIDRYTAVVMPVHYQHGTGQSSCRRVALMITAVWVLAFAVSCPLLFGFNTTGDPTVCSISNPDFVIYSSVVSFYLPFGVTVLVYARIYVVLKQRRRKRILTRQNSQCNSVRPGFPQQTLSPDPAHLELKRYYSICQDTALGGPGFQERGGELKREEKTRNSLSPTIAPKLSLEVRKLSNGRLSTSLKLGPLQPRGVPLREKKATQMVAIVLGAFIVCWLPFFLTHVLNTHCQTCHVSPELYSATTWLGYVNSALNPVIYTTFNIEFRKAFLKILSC
T1 sequence (P14416 whole entry, canonical isoform): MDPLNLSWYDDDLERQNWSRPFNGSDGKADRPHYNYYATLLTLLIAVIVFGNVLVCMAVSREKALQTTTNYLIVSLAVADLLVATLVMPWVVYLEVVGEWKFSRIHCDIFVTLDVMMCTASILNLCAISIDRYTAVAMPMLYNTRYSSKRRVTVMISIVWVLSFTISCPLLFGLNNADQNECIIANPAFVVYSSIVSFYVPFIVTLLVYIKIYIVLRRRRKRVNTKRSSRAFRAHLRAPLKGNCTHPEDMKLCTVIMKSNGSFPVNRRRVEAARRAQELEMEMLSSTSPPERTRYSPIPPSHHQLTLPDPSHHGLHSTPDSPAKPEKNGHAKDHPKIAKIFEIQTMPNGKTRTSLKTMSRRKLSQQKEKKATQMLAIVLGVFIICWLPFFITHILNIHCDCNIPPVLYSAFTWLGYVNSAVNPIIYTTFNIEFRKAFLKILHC

`CCCNCCOc1ccc(NS(=O)(=O)c2ccc(CCCF)cc2)c(OC)n1` [Example 1, 4-(3-Fluoro-propyl)-N-[2-methoxy-6-(2-propylamino-ethoxy)-pyridin-3-yl]-benzenesulfonamide×HCl]: the “Ki(D2)*/Ki(D3)*” value in test [1] is “++ (between 50 and 100)”. Moreover, the inhibition constant Ki in test [2] was less than 1 nM.
For `CCCNCCOc1ccc(NS(=O)(=O)c2ccc(OC(F)(F)F)cc2)c(OC)n1.Cl` [Example 2, N-[2-Methoxy-6-(2-propylamino-ethoxy)-pyridin-3-yl]-4-trifluoromethoxy-benzenesulfonamide×HCl], the “Ki(D2)*/Ki(D3)*” value in test [1] was “+ (between 10 and 50)”. The Ki in test [2] is 1 to 10 nM.
As to `CCCNCCOc1ccc(NS(=O)(=O)c2ccc(C(C)C(F)(F)F)cc2)c(OC)n1` (stereo not shown) [Example 3, N-[2-Methoxy-6-(2-propylamino-ethoxy)-pyridin-3-yl]-4-(2,2,2-trifluoro-1-methylethyl)-benzenesulfonamide×HCl], the “Ki(D2)*/Ki(D3)*” value in test [1] was “++ (between 50 and 100)”. The Ki in test [2] fell in the range of 1 to 10 nM.
Consider `CCCNCCOc1ccc(NS(=O)(=O)c2ccc(C(C)C)cc2)c(OC)n1` [Example 4, 4-Isopropyl-N-[2-methoxy-6-(2-propylamino-ethoxy)-pyridin-3-yl]-benzenesulfonamide×HCl], for which the “Ki(D2)*/Ki(D3)*” value in test [1] is “++ (between 50 and 100)”. Besides, the Ki in test [2] was less than 1 nM.
Regarding `CCCNCCOc1ccc(NS(=O)(=O)c2ccc(OC(F)F)cc2)c(OC)n1` [Example 5, 4-Difluoromethoxy-N-[2-methoxy-6-(2-propylamino-ethoxy)-pyridin-3-yl]-benzenesulfonamide×HCl], the “Ki(D2)*/Ki(D3)*” value in test [1] is “++ (between 50 and 100)”. Also, the inhibitory constant (Ki) in test [2] lay within 1 to 10 nM.
As to `CCCNCCOc1ccc(NS(=O)(=O)c2ccc(CCF)cc2)c(OC)n1` [Example 6, 4-(2-Fluoro-ethyl)-N-[2-methoxy-6-(2-propylamino-ethoxy)-pyridin-3-yl]-benzenesulfonamide×HCl], in test [1], the “Ki(D2)*/Ki(D3)*” value is “++ (between 50 and 100)”. The molecule also returned an inhibition constant Ki in test [2] of 1 to 10 nM.
Consider `CCCNCCOc1ccc(NS(=O)(=O)c2ccc(-c3cnco3)cc2)c(OC)n1` [Example 7, N-[2-Methoxy-6-(2-propylamino-ethoxy)-pyridin-3-yl]-4-oxazol-5-yl-benzenesulfonamide×HCl], for which the “Ki(D2)*/Ki(D3)*” value in test [1] was “++++ (>150)”. The molecule also yielded a Ki in test [2] of less than 1 nM.
On to `CCCNCCOc1ccc(NS(=O)(=O)c2ccc(OCCF)cc2)c(OC)n1` [Example 8, 4-(2-Fluoro-ethoxy)-N-[2-methoxy-6-(2-propylamino-ethoxy)-pyridin-3-yl]-benzenesulfonamide×HCl], for which the “Ki(D2)*/Ki(D3)*” value in test [1] is “++++ (>150)”. In test [2], this molecule registered a Ki of 1 to 10 nM.
For `CCCNCCOc1ccc(NS(=O)(=O)c2ccc(OCC(F)F)cc2)c(OC)n1` [Example 9, 4-(2,2-Difluoro-ethoxy)-N-[2-methoxy-6-(2-propylamino-ethoxy)-pyridin-3-yl]-benzenesulfonamid×HCl], the “Ki(D2)*/Ki(D3)*” value in test [1] is listed as “++++ (>150)”. In test [2], this molecule came in with a Ki of 1 to 10 nM.
As to `CCCNCCOc1ccc(NS(=O)(=O)c2ccc(OCC(F)(F)F)cc2)c(OC)n1` [Example 10, N-[2-Methoxy-6-(2-propylamino-ethoxy)-pyridin-3-yl]-4-(2,2,2-trifluoro-ethoxy)-benzenesulfonamide×HCl], the “Ki(D2)*/Ki(D3)*” value in test [1] is listed as “++++ (>150)”. In test [2], this molecule yielded a Ki of 1 to 10 nM.
For `CCCNCCOc1ccc(NS(=O)(=O)c2ccc([C@@H](C)CF)cc2)c(OC)n1` [Example 11, 4-((R)-2-Fluoro-1-methyl-ethyl)-N-[2-methoxy-6-(2-propylamino-ethoxy)-pyridin-3-yl]-benzenesulfonamide×HCl] the same measures were “++++ (>150)” and less than 1 nM.
As to `COc1nc(OC2CCNC2)ccc1NS(=O)(=O)c1ccc(C(C)C)cc1` (stereo not shown) [Example 13, 4-Isopropyl-N-[2-methoxy-6-(pyrrolidin-3-yloxy)-pyridin-3-yl]-benzenesulfonamide×HCl], the “Ki(D2)*/Ki(D3)*” value in test [1] is “+ (between 10 and 50)”. The same molecule showed a Ki in test [2] of 50 to 150 nM.
With `COc1nc(OCCN2CCCC2)ccc1NS(=O)(=O)c1ccc(CCCF)cc1` [Example 15, 4-(3-Fluoro-propyl)-N-[2-methoxy-6-(2-pyrrolidin-1-yl-ethoxy)-pyridin-3-yl]-benzenesulfonamide], the “Ki(D2)*/Ki(D3)*” value in test [1] is “+ (between 10 and 50)”. The Ki in test [2] was 10 to 50 nM.
Take `COc1nc(OCCN2CCCC2)ccc1NS(=O)(=O)c1ccc(C(C)C)cc1` [Example 16, 4-Isopropyl-N-[2-methoxy-6-(2-pyrrolidin-1-yl-ethoxy)-pyridin-3-yl]-benzenesulfonamide×HCl]: the “Ki(D2)*/Ki(D3)*” value in test [1] is “+ (between 10 and 50)”. In addition, the inhibition constant Ki in test [2] lay within 1 to 10 nM.
Regarding `COc1nc(OCCN2CCCC2)ccc1NS(=O)(=O)c1ccc([C@@H](C)CF)cc1` [Example 17, 4-((R)-2-Fluoro-1-methyl-ethyl)-N-[2-methoxy-6-(2-pyrrolidin-1-yl-ethoxy)-pyridin-3-yl]-benzenesulfonamide], the “Ki(D2)*/Ki(D3)*” value in test [1] was “++ (between 50 and 100)”. In test [2], this molecule returned an inhibition constant Ki of 1 to 10 nM.
As to `COc1nc(OCCN2CCCC2)ccc1NS(=O)(=O)c1ccc(C(C)C(F)(F)F)cc1` (stereo not shown) [Example 18, N-[2-Methoxy-6-(2-pyrrolidin-1-yl-ethoxy)-pyridin-3-yl]-4-(2,2,2-trifluoro-1-methyl-ethyl)-benzenesulfonamide], the “Ki(D2)*/Ki(D3)*” value in test [1] was “+ (between 10 and 50)”. In test [2], this molecule came in with a Ki of 1 to 10 nM.
For the molecule `COc1nc(OCCN2CCCC2)ccc1NS(=O)(=O)c1ccc(-c2cnco2)cc1` [Example 19, N-[2-Methoxy-6-(2-pyrrolidin-1-yl-ethoxy)-pyridin-3-yl]-4-oxazol-5-yl-benzenesulfonamide], in test [1], the “Ki(D2)*/Ki(D3)*” value is “+ (between 10 and 50)”. In addition, the inhibition constant (Ki) in test [2] is 10 to 50 nM.
As to `CCCNCCOc1ncc(NS(=O)(=O)c2ccc(C(C)C)cc2)c(OC)n1` [Example 20, 4-isopropyl-N-[4-methoxy-2-(2-propylamino-ethoxy)-pyrimidin-5-yl]-benzenesulfonamide], in test [1], the “Ki(D2)*/Ki(D3)*” value was “+ (between 10 and 50)”. The inhibition constant (Ki) in test [2] was in the range of 1 to 10 nM.
`CCCNCCOc1ncc(NS(=O)(=O)c2ccc(OC(F)(F)F)cc2)c(OC)n1` [Example 21, N-[4-Methoxy-2-(2-propylamino-ethoxy)-pyrimidin-5-yl]-4-trifluoromethoxy-benzenesulfonamide]: the “Ki(D2)*/Ki(D3)*” value in test [1] is “++ (between 50 and 100)”. This molecule had an inhibition constant (Ki) in test [2] of 50 to 150 nM.
For the molecule `CC(C)c1ccc(S(=O)(=O)Nc2ccc(OCCN(C)C)nc2)cc1` [Example 22, N-[6-(2-Dimethylamino-ethoxy)-pyridin-3-yl]-4-isopropyl-benzenesulfonamide×HCl], the inhibition constant (Ki) in test [2] fell in the range of 50 to 150 nM.
On to `CCCNCCOc1ccc(NS(=O)(=O)c2ccc(C(C)C)cc2)cn1` [Example 23, 4-Isopropyl-N-[6-(2-propylamino-ethoxy)-pyridin-3-yl]-benzenesulfonamide×HCl], for which the “Ki(D2)*/Ki(D3)*” value in test [1] is “+ (between 10 and 50)”. The Ki in test [2] was in the range of 10 to 50 nM.
With `CCCN(CCC)CCOc1ccc(NS(=O)(=O)c2ccc(C(C)C)cc2)cn1` [Example 24, N-[6-(2-Dipropylamino-ethoxy)-pyridin-3-yl]-4-isopropyl-benzenesulfonamide×HCl], the “Ki(D2)*/Ki(D3)*” value in test [1] was “++ (between 50 and 100)”. In test [2], this molecule displayed a Ki of 10 to 50 nM.
Regarding `COc1nc(OC[C@H]2CCCN2)ccc1NS(=O)(=O)c1ccc(-c2cnco2)cc1` [Example 27, N-[2-Methoxy-6-((R)-1-pyrrolidin-2-ylmethoxy)-pyridin-3-yl]-4-oxazol-5-yl-benzenesulfonamide×HCl], in test [1], the “Ki(D2)*/Ki(D3)*” value is “+++ (between 100 and 150)”. Further, the Ki in test [2] lay in the range of 1 to 10 nM.
Take `CCCNCCOc1ccc(NS(=O)(=O)c2ccc(C(C)C)cc2)c(C)n1` [Example 29, 4-Isopropyl-N-[2-methyl-6-(2-propylamino-ethoxy)-pyridin-3-yl]-benzenesulfonamide×HCl]: the “Ki(D2)*/Ki(D3)*” value in test [1] is reported as “++++ (>150)”. In test [2], this molecule displayed a Ki of less than 1 nM.
The like results for `CCCNCCOc1ccc(NS(=O)(=O)c2ccc([C@@H](C)CF)cc2)c(C)n1` [Example 34, 4-((R)-2-Fluoro-1-methyl-ethyl)-N-[2-methyl-6-(2-propylamino-ethoxy)-pyridin-3-yl]-benzenesulfonamide×HCl] were, in that order, “++++ (>150)” and 1 to 10 nM.
The like results for `CCCNCCOc1ccc(NS(=O)(=O)c2ccc(-c3cnco3)cc2)c(C)n1` [Example 36, N-[2-Methyl-6-(2-propylamino-ethoxy)-pyridin-3-yl]-4-oxazol-5-yl-benzenesulfonamide×HCl] were, in that order, “++++ (>150)” and 10 to 50 nM.
As to `Cc1nc(OC[C@@H]2CCCN2)ccc1NS(=O)(=O)c1ccc(C(C)C)cc1` [Example 43, 4-Isopropyl-N-[2-methyl-6-((S)-1-pyrrolidin-2-ylmethoxy)-pyridin-3-yl]-benzenesulfonamide×HCl], the “Ki(D2)*/Ki(D3)*” value in test [1] was “+++ (between 100 and 150)”. The molecule further came in with a Ki in test [2] of 1 to 10 nM.
For the molecule `CCCNCCOc1cc(C)c(NS(=O)(=O)c2ccc([C@@H](C)CF)cc2)cn1` [Example 57, 4-((R)-2-Fluoro-1-methyl-ethyl)-N-[4-methyl-6-(2-propylamino-ethoxy)-pyridin-3-yl]-benzenesulfonamide×HCl], in test [1], the “Ki(D2)*/Ki(D3)*” value was “++ (between 50 and 100)”. Further, the Ki in test [2] is 10 to 50 nM.

As usually defined, the Ki is a measure of affinity in units of concentration, obtained from inhibition or displacement. A higher Ki goes with lower affinity.

(Values after patent publication US8383641B2, “Aryloxyethylamine compounds suitable for treating disorders that respond to modulation of the dopamine D3 receptor” (Abbott GmbH & Co. KG, priority 2006, dated 2013).)
